T1: DMC1 ΔN (Homo sapiens, UniProt Q14565)
T1 construct: DMC1 ΔN (83-340) were cloned into pHAT4; His6 (TEV-cleavable) (N, cleaved yes); made in house; host or cells: E. coli BL21 (DE3)
T1 sequence (Q14565 83-340): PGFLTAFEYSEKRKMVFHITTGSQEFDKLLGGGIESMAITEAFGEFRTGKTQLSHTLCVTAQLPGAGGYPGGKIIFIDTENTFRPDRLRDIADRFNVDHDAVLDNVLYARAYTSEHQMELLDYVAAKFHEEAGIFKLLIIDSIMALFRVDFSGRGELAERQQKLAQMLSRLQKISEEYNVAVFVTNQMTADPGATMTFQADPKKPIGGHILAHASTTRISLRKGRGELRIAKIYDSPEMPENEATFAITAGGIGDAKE

T2: DMC1 ΔN loop mutant (Homo sapiens, UniProt Q14565, A148D/A183D/D180S/D182S/G147I/G149R/G153E/H181G/N178G/P152G/V179L/Y151G)
T2 construct: DMC1 ΔN (83-340) were cloned into pHAT4; made in house
T2 sequence (Q14565 83-340 G147I/A148D/G149R/Y151G/P152G/G153E/N178G/V179L/D180S/H181G/D182S/A183D limits assumed): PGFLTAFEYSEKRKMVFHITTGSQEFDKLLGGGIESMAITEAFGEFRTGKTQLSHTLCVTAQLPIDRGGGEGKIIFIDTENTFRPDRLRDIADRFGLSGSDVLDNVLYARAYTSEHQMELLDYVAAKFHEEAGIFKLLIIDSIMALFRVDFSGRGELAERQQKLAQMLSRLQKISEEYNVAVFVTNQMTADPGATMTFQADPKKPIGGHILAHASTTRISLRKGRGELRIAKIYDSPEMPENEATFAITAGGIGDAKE

T3: DMC1;BRCA2 Ex14-Tr (Homo sapiens;Homo sapiens, UniProt Q14565;P51587 1-340;, |)
T3 sequence 1: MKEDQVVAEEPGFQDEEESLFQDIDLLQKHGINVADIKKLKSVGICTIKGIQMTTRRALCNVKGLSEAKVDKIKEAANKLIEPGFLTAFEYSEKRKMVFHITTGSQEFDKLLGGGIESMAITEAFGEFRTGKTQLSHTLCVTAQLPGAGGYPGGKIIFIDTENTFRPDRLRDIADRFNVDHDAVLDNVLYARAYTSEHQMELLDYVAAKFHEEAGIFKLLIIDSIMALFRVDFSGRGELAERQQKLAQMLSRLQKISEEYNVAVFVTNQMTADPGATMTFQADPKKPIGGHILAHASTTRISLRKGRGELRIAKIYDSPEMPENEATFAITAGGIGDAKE
T3 sequence 2: RPTKVFVPPFKTKS

T4: DMC1 (Homo sapiens, UniProt Q14565 1-340)
T4 sequence: T3 sequence 1

T5: DMC1;BRCA2 Ex14 (Homo sapiens;Homo sapiens, UniProt Q14565;P51587 1-340;2387-2420, |)
T5 sequence 1: T3 sequence 1
T5 sequence 2: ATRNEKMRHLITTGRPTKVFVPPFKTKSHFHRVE

B1: 100-nt random-sequence ssDNA (ssDNA)
DNA: AATTCTCATTTTACTTACCGGACGCTATTAGCAGTGGGTGAGCAAAAACAGGAAGGCAAAATGCCGCAAAAAAGGGAATAAGGGCGACACGGAAATGTTG

Experiments:
RAD51-ssDNA filaments [1] = experiment: EMSA, BRC4-mediated disruption of RAD51-ssDNA filaments (random sequence ssDNA); assay type: biochemical; conditions: 100-nt random ssDNA; equimolar BRC4
Procedure: (§1) To form nucleoprotein filaments, DMC1 and RAD51 was incubated with fluorescent 100-base ssDNA (5’-FAM- […]-3’) at the concentrations indicated in the figures for 30 minutes at 4 °C in reaction buffer. For DMC1, reaction buffer is 25 mM TEA (triethanolamine) pH 7.5, 1 mM ATP, 2 mM MgCl2, 0.1 mg/ml BSA, 2 mM DTT, 200 mM KCl. For RAD51, reaction buffer is 50 mM TEA (triethanolamine), 2 mM ATP, 0.5 mM MgCl2, 2 mM DTT. For assays requiring incomplete nucleoprotein filament assembly, the reaction buffer consisted of 50 mM TAE (tris, acetate, EDTA) pH 7.5, 2 mM ATP, 2 mM MgCl2, 2 mM DTT. In nucleoprotein formation stimulation assays or supershift experiments, BRCA2Ex14 or BRCA2Ex14-AAA were added for a further 30 min at 4 °C. […] Glycerol was added at a final concentration of 3%, and samples were analysed by electrophoresis on a 1% (w/v) (for DMC1) or 0.66% (w/v) (for RAD51) agarose gel in 0.5x TAE pH 8.0 at 20–40 V for ~4 h at 4 °C. DNA was detected by FAM using a Typhoon^TM FLA 9500 (GE Healthcare), with 473 nm laser at excitation wavelength 490 nm and emission wavelength 520 nm, using the LPB filter and a PMT voltage of 500 V. To analyse RAD51 nucleoprotein filaments assembled upon 100-base poly(dT) ssDNA, gels were stained post-run using SYBR^TM Gold Nucleic Acid Gel Stain (Invitrogen) and detected using a Typhoon^TM FLA 9500 (GE Healthcare).

DMC1 ΔN = target: T1, DMC1 ΔN; experiment: Amylose pull-down of DMC1 ΔN with MBP-BRCA2 fusions; assay type: binding; conditions: recombinant co-expression with MBP-BRCA2 fusion
Description: (§2) For affinity pulldown experiments, MBP-fusions of BRCA2 fragments (Ex14, amino-acids 2387-2420, Ex14-Tr, amino acids 2401-2414, Ex27, amino acids 3270-3315, BRC4, amino acids 1519-1551) were cloned into pMAT11 vectors[54] and co-expressed with DMC1 ΔN, DMC1 ΔN loop mutant (in which DMC1 amino acids 147-GAGGYPG-153 and 178-NVDHDA-183 were replaced by the cognate sequences of RAD51 148-IDRGGGE-154 and 179-GLSGSD-184), RAD51 ΔN, RAD51 ΔN loop mutant (the reverse switch of DMC1 ΔN loop mutant), and RAD51. MBP-fusions and complexes were purified through amylose affinity chromatography.

[2] = tested on: RAD51 L180E-ssDNA filaments; experiment: EMSA, BRC4-mediated disruption of RAD51 L180E-ssDNA filaments (random sequence ssDNA); assay type: biochemical; conditions: 100-nt random ssDNA
Procedure: as §1

DMC1 ΔN F85E = experiment: Amylose pull-down of His-DMC1 ΔN F85E (monomeric) with MBP-BRCA2 fusions; assay type: binding, human; conditions: lysates mixed; MBP-BRCA2 fusion; 20 mM Tris pH 8.0, 500 mM KCl, 2 mM DTT
Procedure: (§3) For affinity experiments involving DMC1 ΔN V179E and F85E, MBP-fusions of BRCA2 fragments (Ex14, amino-acids 2387-2420, Ex14-Tr, amino acids 2401-2414, BRC4, amino acids 1519-1551) were cloned into pMAT11 vectors and DMC1 ΔN mutants (V179E or F85E) were cloned into pHAT4 vectors. Lysates of bacterial cultures expressing His6-DMC1 mutants or MBP-BRCA2 constructs were mixed, and complexes were purified through amylose affinity chromatography in 20 mM Tris pH 8.0, 500 mM KCl, 2 mM DTT and eluted using 30 mM D-maltose.

DMC1 ΔN loop mutant = target: T2, DMC1 ΔN loop mutant; experiment: Amylose pull-down of DMC1 ΔN loop mutant with MBP-BRCA2 fusions; assay type: binding; conditions: recombinant co-expression with MBP-BRCA2 fusion
Description: as §2

RAD51-ssDNA filaments [3] = experiment: EMSA, protection of RAD51-ssDNA filaments from BRC4-mediated disruption (random sequence ssDNA); assay type: biochemical; conditions: 100-nt random ssDNA; 10-fold excess of Ex27
Procedure: as §1

DMC1 ΔN V179E = experiment: Amylose pull-down of His-DMC1 ΔN V179E with MBP-BRCA2 fusions; assay type: binding, human; conditions: lysates mixed; MBP-BRCA2 fusion; 20 mM Tris pH 8.0, 500 mM KCl, 2 mM DTT
Procedure: as §3

DMC1-ssDNA filaments = experiment: EMSA, BRC4-mediated disruption of DMC1-ssDNA filaments; assay type: biochemical, human; conditions: TEA pH 7.5 + KCl; stoichiometric excess of BRC4 (5-fold, 10-fold elsewhere in the source)
Procedure: Finally, we tested whether binding of BRCA2 Ex14 protects DMC1-ssDNA nucleoprotein filaments from BRC4-mediated disruption (Fig. 3c). […] Further, whilst the core PhePP interaction site is sufficient to stimulate DMC1-ssDNA nucleoprotein filament formation, surrounding amino-acids that are present within Ex14 (but not Ex14-Tr) are necessary to super-shift filaments and confer protection from BRC4-mediated disruption.
as §1, with “KCl.” for “KCl. For RAD51, reaction buffer is 50 mM TEA (triethanolamine), 2 mM ATP, 0.5 mM MgCl2, 2 mM DTT. For assays requiring incomplete nucleoprotein filament assembly, the reaction buffer consisted of 50 mM TAE (tris, acetate, EDTA) pH 7.5, 2 mM ATP, 2 mM MgCl2, 2 mM DTT. In nucleoprotein formation stimulation assays or supershift experiments, BRCA2Ex14 or BRCA2Ex14-AAA were added for a further 30 min at 4 °C.”

DMC1;BRCA2 Ex14-Tr = target: T3, DMC1;BRCA2 Ex14-Tr; experiment: EMSA; TAE + Ex14-Tr; mostly stimulated filament formation; DMC1: 25 mM TEA (triethanolamine) pH 7.5, 200 mM KCl, 1 mM ATP, 2 mM MgCl2, 0.1 mg/ml BSA, 2 mM DTT, or 50 mM TAE pH 7.5, 2 mM ATP, 2 mM MgCl2, 2 mM DTT; RAD51: 50 mM TEA, 2 mM ATP, 0.5 mM MgCl2, 2 mM DTT; all 4 C, agarose gel in 0.5x TAE; conditions: tags: His6 removed by TEV;; label: 5'-FAM; single strand
DMC1 = target: T4, DMC1; experiment: EMSA; TEA + 200 mM KCl, 1 mM ATP, 2 mM Mg2+; largely complete at 3 nt per protomer (11 µM DMC1); DMC1: 25 mM TEA (triethanolamine) pH 7.5, 200 mM KCl, 1 mM ATP, 2 mM MgCl2, 0.1 mg/ml BSA, 2 mM DTT, or 50 mM TAE pH 7.5, 2 mM ATP, 2 mM MgCl2, 2 mM DTT; RAD51: 50 mM TEA, 2 mM ATP, 0.5 mM MgCl2, 2 mM DTT; all 4 C, agarose gel in 0.5x TAE; conditions: protein: recombinant; tags: His6 removed by TEV; chain copies: 8; label: 5'-FAM; single strand
RAD51;BRCA2 Ex27 = RAD51;BRCA2 Ex27 (Homo sapiens?;Homo sapiens?, UniProt Q06609;P51587 1-339;3270-3315, |); experiment: EMSA, BRC4 protection; 10-fold excess Ex27 + BRC4; protected, less complete than on poly(dT); DMC1: 25 mM TEA (triethanolamine) pH 7.5, 200 mM KCl, 1 mM ATP, 2 mM MgCl2, 0.1 mg/ml BSA, 2 mM DTT, or 50 mM TAE pH 7.5, 2 mM ATP, 2 mM MgCl2, 2 mM DTT; RAD51: 50 mM TEA, 2 mM ATP, 0.5 mM MgCl2, 2 mM DTT; all 4 C, agarose gel in 0.5x TAE; conditions: tags: ;; label: 5'-FAM; single strand
DMC1;BRCA2 Ex14 = target: T5, DMC1;BRCA2 Ex14; experiment: EMSA, BRC4 protection; TEA + KCl; 110 µM Ex14, 10-fold excess BRC4, protected; DMC1: 25 mM TEA (triethanolamine) pH 7.5, 200 mM KCl, 1 mM ATP, 2 mM MgCl2, 0.1 mg/ml BSA, 2 mM DTT, or 50 mM TAE pH 7.5, 2 mM ATP, 2 mM MgCl2, 2 mM DTT; RAD51: 50 mM TEA, 2 mM ATP, 0.5 mM MgCl2, 2 mM DTT; all 4 C, agarose gel in 0.5x TAE; conditions: protein: recombinant;recombinant; tags: His6 removed by TEV;His6-MBP removed by TEV; label: 5'-FAM; single strand

Molecule	disruption of RAD51-ssDNA filaments (RAD51-ssDNA filaments [1])	binding in pull-down (DMC1 ΔN)	disruption of RAD51 L180E-ssDNA filaments [2]	binding in pull-down (DMC1 ΔN F85E)	binding in pull-down (DMC1 ΔN loop mutant)	protection of RAD51-ssDNA filaments from BRC4-mediated disruption (RAD51-ssDNA filaments [3])	binding in pull-down (DMC1 ΔN V179E)	disruption of DMC1-ssDNA filaments (DMC1-ssDNA filaments)	binding result (DMC1;BRCA2 Ex14-Tr)	binding result (DMC1)	binding result (RAD51;BRCA2 Ex27)	binding result (DMC1;BRCA2 Ex14)
BRC4: BRCA2 BRC repeat 4 peptide, amino acids 1519-1551 (PTLLGFHTASGKKVKIAKESLDKVKNLFDEKEQ; not fully specified; left off: His6, end not stated, state not stated | MBP, end not stated, kept) [reference compound]	disrupted	bind	underwent similar disruption	retained binding	retained its interaction	partially disrupt filaments	retained binding	completely disrupted				
B1									binds	binds	binds	binds

Source: PMC11436757, “BRCA2 stabilises RAD51 and DMC1 nucleoprotein filaments through a conserved interaction mode” (Nature Communications, 2024)
